The subject of one series is NIH3T3. Briefly: Antiproliferative activity against mouse 3T3 cells assessed as reduction in cell viability at 100 uM measured for 48 hrs by MTT assay relative to control. The series is classed as toxicity, cell-based. The conditions noted are these: nih3t3, 48 h. (Formazan colour is commonly taken as a measure of viable cells.)
Another series has as its system MCF7. Briefly: Antiproliferative activity against human MCF7 cells assessed as reduction in cell viability measured for 48 hrs by MTT assay. The series is classed as functional, cell-based. The conditions noted are these: MCF7, 48 h.
In series [1] the target is T1, DNA topoisomerase 1 (Homo sapiens) (UniProt P11387).
T1 sequence (whole entry): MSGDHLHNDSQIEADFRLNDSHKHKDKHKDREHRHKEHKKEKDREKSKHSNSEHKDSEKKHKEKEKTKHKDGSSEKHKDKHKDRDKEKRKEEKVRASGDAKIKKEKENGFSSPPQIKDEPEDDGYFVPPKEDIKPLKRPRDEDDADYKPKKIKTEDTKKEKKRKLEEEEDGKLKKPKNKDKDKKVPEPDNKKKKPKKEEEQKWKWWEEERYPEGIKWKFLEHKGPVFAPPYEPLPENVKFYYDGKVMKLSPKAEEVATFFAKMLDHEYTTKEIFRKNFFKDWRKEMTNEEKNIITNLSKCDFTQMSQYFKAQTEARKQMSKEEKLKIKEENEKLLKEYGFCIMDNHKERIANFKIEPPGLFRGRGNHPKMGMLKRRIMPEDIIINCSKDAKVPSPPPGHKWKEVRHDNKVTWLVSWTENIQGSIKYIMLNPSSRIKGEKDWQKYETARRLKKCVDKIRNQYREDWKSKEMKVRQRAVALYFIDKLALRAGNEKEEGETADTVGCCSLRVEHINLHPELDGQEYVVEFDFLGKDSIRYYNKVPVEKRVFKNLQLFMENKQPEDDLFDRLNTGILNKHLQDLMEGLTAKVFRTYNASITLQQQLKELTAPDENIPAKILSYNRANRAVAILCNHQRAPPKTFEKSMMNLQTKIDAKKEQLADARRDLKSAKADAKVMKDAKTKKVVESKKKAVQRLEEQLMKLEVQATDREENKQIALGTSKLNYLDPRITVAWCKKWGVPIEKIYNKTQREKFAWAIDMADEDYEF
Briefly: Inhibition of human topoisomerase 1 assessed as relaxation of pBR322 plasmid DNA at 100 uM measured after 30 mins by agarose gel electrophoresis analysis.

Series [2] concerns the target DNA topoisomerase 2-alpha (Homo sapiens) (UniProt P11388). The experiment in a line: Inhibition of human topoisomerase 2 assessed as relaxation of pBR322 plasmid DNA at 100 uM measured after 30 mins by ethidium bromide staining based UV transilluminator analysis.
For a further series, the system named is U-937. Briefly: Antiproliferative activity against human U-937 cells assessed as reduction in cell viability measured for 48 hrs by MTT assay. Type of series: functional, cell-based. The conditions noted are these: U-937, 48 h.
The subject of another series is MGC-803. Briefly: Antiproliferative activity against human MGC-803 cells assessed as reduction in cell viability measured for 48 hrs by MTT assay. Conditions: MGC-803, 48 h. The series is classed as functional, cell-based.
The target of another series is Histone deacetylase. Briefly: Inhibition of HDAC in human HeLa nuclear extract measured after 30 mins by fluorescence based assay. The series is classed as cell-free.

pIC50: −log10 of the molar value. Active and inactive are the calls of the source. The rule behind the calls is not given here.

The term pIC50 denotes −log10 of the IC50, conventionally taken in molar units. By IC50 is commonly meant the concentration needed to halve the response being measured. Read a low IC50 as greater potency in that assay.

Chain of DNA topoisomerase 2-alpha (Homo sapiens) (P11388 whole entry): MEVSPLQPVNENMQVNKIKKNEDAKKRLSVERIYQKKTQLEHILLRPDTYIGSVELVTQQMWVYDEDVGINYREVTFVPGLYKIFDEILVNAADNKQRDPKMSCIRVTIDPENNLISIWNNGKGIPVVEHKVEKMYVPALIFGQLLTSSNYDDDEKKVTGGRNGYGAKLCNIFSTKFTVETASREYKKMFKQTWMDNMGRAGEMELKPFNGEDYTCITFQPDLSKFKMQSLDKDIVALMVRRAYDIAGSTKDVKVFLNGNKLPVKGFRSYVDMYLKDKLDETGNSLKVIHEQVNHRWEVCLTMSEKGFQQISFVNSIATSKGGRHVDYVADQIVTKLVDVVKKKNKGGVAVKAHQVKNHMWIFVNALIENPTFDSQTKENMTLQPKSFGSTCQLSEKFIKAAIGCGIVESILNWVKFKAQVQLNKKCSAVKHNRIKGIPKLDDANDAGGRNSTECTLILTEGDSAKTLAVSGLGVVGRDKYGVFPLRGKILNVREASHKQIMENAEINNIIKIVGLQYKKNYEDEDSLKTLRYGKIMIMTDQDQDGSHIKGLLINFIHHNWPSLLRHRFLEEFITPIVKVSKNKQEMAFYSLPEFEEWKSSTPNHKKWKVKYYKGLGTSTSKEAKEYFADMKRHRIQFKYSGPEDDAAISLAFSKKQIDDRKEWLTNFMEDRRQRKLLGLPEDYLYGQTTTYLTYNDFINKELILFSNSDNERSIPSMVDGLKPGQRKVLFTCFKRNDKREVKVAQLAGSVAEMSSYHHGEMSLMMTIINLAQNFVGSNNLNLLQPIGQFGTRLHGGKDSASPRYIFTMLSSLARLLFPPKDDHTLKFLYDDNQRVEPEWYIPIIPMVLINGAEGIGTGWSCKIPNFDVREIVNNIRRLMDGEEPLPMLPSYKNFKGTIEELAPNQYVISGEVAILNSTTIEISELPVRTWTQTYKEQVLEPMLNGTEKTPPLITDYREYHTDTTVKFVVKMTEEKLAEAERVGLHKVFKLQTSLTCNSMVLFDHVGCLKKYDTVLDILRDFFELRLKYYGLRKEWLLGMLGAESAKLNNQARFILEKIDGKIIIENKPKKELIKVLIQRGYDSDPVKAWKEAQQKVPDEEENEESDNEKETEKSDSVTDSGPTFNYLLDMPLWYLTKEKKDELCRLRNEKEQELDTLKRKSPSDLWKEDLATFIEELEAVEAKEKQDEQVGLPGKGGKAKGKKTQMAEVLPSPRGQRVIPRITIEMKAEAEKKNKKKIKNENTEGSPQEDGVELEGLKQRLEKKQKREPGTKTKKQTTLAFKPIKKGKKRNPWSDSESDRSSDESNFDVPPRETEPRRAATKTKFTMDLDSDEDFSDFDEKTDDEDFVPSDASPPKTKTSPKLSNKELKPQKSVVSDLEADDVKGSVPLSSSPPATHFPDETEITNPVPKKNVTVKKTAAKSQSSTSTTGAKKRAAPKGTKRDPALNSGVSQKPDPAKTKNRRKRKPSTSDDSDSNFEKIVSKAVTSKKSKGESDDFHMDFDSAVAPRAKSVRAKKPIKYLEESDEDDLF

Turning to `O=C(CCCSc1nc2c([nH]c3ccccc32)c(=O)[nH]1)NO`, in the series with NIH3T3, the Activity is 38.06%. Besides, the pIC50 in the series on MCF7 is 4.38; in the series on U-937, 4.27; in the series with MGC-803, 4.47. The “inhibition (active/inactive call)” value in series [1] was “Active”. The “topoisomerase II inhibition (active/inactive)” value in series [2] was “Active”.
As for `CCn1c(SC/C=C/C(=O)NO)nc2c([nH]c3ccccc32)c1=O`, the Activity in the series with NIH3T3 came out at 50.31%. The pIC50 is 4.45 in the series with MCF7, 4.63 in the series on U-937 and 4.59 with MGC-803. For the same compound, the “inhibition (active/inactive call)” value in series [1] is “Active”.
For the compound `O=C(/C=C/c1ccc(CSc2nc3[nH]ncc3c(=O)[nH]2)cc1)NO`, the Activity with NIH3T3 is given as 39.04%. Also, the figures for the pIC50 in the series with MCF7, with U-937 and in the series on MGC-803 were 4.67, 4.32 and 4.80, respectively. Besides, the “inhibition (active/inactive call)” value in series [1] was “Active”. Further, in series [2], the “topoisomerase II inhibition (active/inactive)” value is “Active”.
On to `O=C(CCSc1nc2[nH]ncc2c(=O)[nH]1)NO`, for which the Activity with NIH3T3 is given as 48.81%. The pIC50 with MCF7 was 4.65; in the series on U-937, 4.50; in the series on MGC-803, 4.72. Besides, the “inhibition (active/inactive call)” value in series [1] is “Active”. Also, the “topoisomerase II inhibition (active/inactive)” value in series [2] was “Active”.
For `O=C(CCCCCSc1nc2[nH]ncc2c(=O)[nH]1)NO`, the Activity in the series with NIH3T3 was 20.31%. The pIC50 with MCF7 is 4.81; in the series with U-937 it was 4.67; in the series with MGC-803, 4.59. Moreover, in series [1], the “inhibition (active/inactive call)” value was “Active”. Further, the “topoisomerase II inhibition (active/inactive)” value in series [2] was “Active”.
Regarding `CCn1c(SCCCCCCC(=O)NO)nc2c([nH]c3ccccc32)c1=O`, the Activity in the series with NIH3T3 was determined as 61.71%. Further, the pIC50 in the series on MCF7 was 4.46; with U-937, 4.66; in the series on MGC-803 it was 4.33. For the same compound, the “inhibition (active/inactive call)” value in series [1] was “Active”.
As to `O=C(CCCCCSc1nc2c([nH]c3ccccc32)c(=O)[nH]1)NO`, the Activity with NIH3T3 was found to be 65.7%. Further, the pIC50 in the series on MCF7 was 4.54; in the series on U-937 it was 4.46; with MGC-803 it was 4.56. For the same compound, the “inhibition (active/inactive call)” value in series [1] is “Active”. Further, the “topoisomerase II inhibition (active/inactive)” value in series [2] is “Active”. The compound further returned an IC50 at Histone deacetylase of 2.58 µM.
As to `C/C(=N\O)c1ccc(NC(=O)CSc2nc3c([nH]c4ccccc43)c(=O)[nH]2)cc1`, the Activity in the series on NIH3T3 is given as 18.72%. In addition, the pIC50 was < 4.10 in the series with MCF7, 4.43 in the series with U-937 and 4.48 in the series with MGC-803. In addition, the “inhibition (active/inactive call)” value in series [1] is “Active”. For the same compound, the “topoisomerase II inhibition (active/inactive)” value in series [2] was “Active”.
Regarding `C/C(=N/O)c1ccc(NC(=O)CCCSc2nc3[nH]ncc3c(=O)[nH]2)cc1`, the Activity in the series with NIH3T3 was determined as 38.02%. In addition, the figures for the pIC50 in the series on MCF7, in the series with U-937 and with MGC-803 were 4.44, 4.35 and 4.44, respectively. For the same compound, the “inhibition (active/inactive call)” value in series [1] is “Active”.
On to `O=C(/C=C/CSc1nc2c([nH]c3ccccc32)c(=O)[nH]1)NO`, for which the Activity with NIH3T3 was 41.34%. The negative logarithm of the IC50 (pIC50) in the series with MCF7 was 4.31; with U-937, 4.66; in the series with MGC-803, 4.69. In addition, in series [1], the “inhibition (active/inactive call)” value was “Active”. In addition, in series [2], the “topoisomerase II inhibition (active/inactive)” value was “Active”.
For the compound `O=C(CCSc1nc2c([nH]c3ccccc32)c(=O)[nH]1)NO`, the Activity in the series with NIH3T3 was found to be 21.73%. For the same compound, the pIC50 is 4.22 with MCF7, 4.55 in the series with U-937 and 4.61 in the series with MGC-803. Moreover, the “inhibition (active/inactive call)” value in series [1] was “Active”. In addition, the “topoisomerase II inhibition (active/inactive)” value in series [2] was “Active”.
Take `O=C(CCCSc1nc2[nH]ncc2c(=O)[nH]1)NO`: the Activity in the series with NIH3T3 was 32.15%. Further, the values for the pIC50 in the series on MCF7, in the series with U-937 and in the series on MGC-803 were 4.69, 4.66 and 4.56, respectively. For the same compound, the “inhibition (active/inactive call)” value in series [1] is “Active”.
Turning to `CCn1c(SCCCC(=O)NO)nc2c([nH]c3ccccc32)c1=O`, the Activity in the series on NIH3T3 was determined as 46.33%. Besides, the pIC50 in the series on MCF7 is < 4.10; in the series with U-937 it was 4.74; in the series on MGC-803 it was 4.76. Also, the “inhibition (active/inactive call)” value in series [1] was “Active”.
Turning to `CC[C@@]1(O)C(=O)OCc2c1cc1n(c2=O)Cc2cc3ccccc3nc2-1` [CAMPTOTHECIN], in the series with NIH3T3, the Activity is on record as 37.51%. For the same compound, the pIC50 with MCF7 is 4.73; in the series with U-937, 4.74; in the series with MGC-803 it was 4.75.
Consider `CCn1c(SCC(=O)NO)nc2c([nH]c3ccccc32)c1=O`, for which, in the series with NIH3T3, the Activity is listed as 45.5%. The pIC50 with MCF7 is 4.38; with U-937 it was 4.82; in the series with MGC-803 it was 4.50. Also, the “inhibition (active/inactive call)” value in series [1] was “Active”.
For `C/C(=N\O)c1ccc(NC(=O)CSc2nc3[nH]ncc3c(=O)[nH]2)cc1` the same measures were 41.36%, 4.33, 4.51, 4.37 and “Active”.
`O=C(/C=C/c1ccc(CSc2nc3c([nH]c4ccccc43)c(=O)[nH]2)cc1)NO`: the Activity in the series on NIH3T3 stood at 21.56%. In addition, the results for the pIC50 in the series on MCF7, in the series on U-937 and with MGC-803 were 4.43, 4.52 and 4.66, respectively. In series [1], the “inhibition (active/inactive call)” value was “Active”. This compound also gave an IC50 against Histone deacetylase of 2.38 µM.
Consider `O=C(CSc1nc2[nH]ncc2c(=O)[nH]1)NO`, for which the Activity in the series on NIH3T3 worked out at 41.42%. Further, the pIC50 with MCF7 was < 4.10; in the series on U-937 it was 4.63; in the series on MGC-803, 4.51. Also, the “inhibition (active/inactive call)” value in series [1] was “Active”. Further, in series [2], the “topoisomerase II inhibition (active/inactive)” value is “Active”.
For `CCn1c(SCCCCCC(=O)NO)nc2c([nH]c3ccccc32)c1=O`, the Activity with NIH3T3 was 43.13%. The pIC50 is 4.59 with MCF7, 4.71 with U-937 and 4.58 with MGC-803. Besides, in series [1], the “inhibition (active/inactive call)” value was “Active”.
For `CCn1c(SCCC(=O)NO)nc2c([nH]c3ccccc32)c1=O` the same measures were 53.79%, 4.37, 4.74, 4.36 and “Active”.
Turning to `CCn1c(SCCCCCCCC(=O)NO)nc2c([nH]c3ccccc32)c1=O`, the Activity with NIH3T3 is on record as 43.12%. Besides, the negative logarithm of the IC50 (pIC50) is 4.71 in the series on MCF7, 4.60 with U-937 and 4.44 with MGC-803. The “inhibition (active/inactive call)” value in series [1] is “Active”.
In the case of `CCn1c(SCC(=O)Nc2ccc(/C(C)=N/O)cc2)nc2c([nH]c3ccccc32)c1=O`, in the series with NIH3T3, the Activity stood at 21.56%. Besides, the negative logarithm of the IC50 (pIC50) in the series on MCF7 was 4.43; in the series with U-937, 4.52; in the series with MGC-803, 4.32. The “inhibition (active/inactive call)” value in series [1] was “Active”. In addition, in series [2], the “topoisomerase II inhibition (active/inactive)” value is “Active”.
Regarding `O=C(CCCCSc1nc2[nH]ncc2c(=O)[nH]1)NO`, the Activity in the series with NIH3T3 came out at 24.26%. In addition, the values for the pIC50 in the series with MCF7, with U-937 and in the series with MGC-803 were 4.72, 4.71 and 4.40, respectively. Besides, the “inhibition (active/inactive call)” value in series [1] is “Active”. Further, the “topoisomerase II inhibition (active/inactive)” value in series [2] is “Active”.
Turning to `O=C(CCCCCCSc1nc2c([nH]c3ccccc32)c(=O)[nH]1)NO`, the Activity in the series with NIH3T3 is on record as 53.49%. The results for the pIC50 in the series on MCF7, with U-937 and in the series on MGC-803 were 4.60, 4.71 and 4.70, respectively. For the same compound, the “inhibition (active/inactive call)” value in series [1] was “Active”. In addition, the “topoisomerase II inhibition (active/inactive)” value in series [2] was “Active”.
In the case of `O=C(CSc1nc2c([nH]c3ccccc32)c(=O)[nH]1)NO`, in the series with NIH3T3, the Activity is on record as 38.47%. For the same compound, the pIC50 in the series with MCF7 is < 4.10; in the series on U-937, 4.57; with MGC-803, < 4.10. Moreover, the “inhibition (active/inactive call)” value in series [1] is “Active”. The “topoisomerase II inhibition (active/inactive)” value in series [2] is “Active”.

Values taken from ChEMBL document CHEMBL5346940, “Design, synthesis and biological evaluation of dual Topo II/HDAC inhibitors bearing pyrimido[5,4-b]indole and pyrazolo[3,4-d]pyrimidine motifs” (Eur J Med Chem, 2023).
